Reference: EP4722207A1, “OXOISOINDOLINYL-SUBSTITUTED TETRAHYDROPYRIMIDINEDIONE DERIVATIVE AND USE THEREOF” (Gluetacs Therapeutics (Shanghai) Co., Ltd., priority 2023, dated 2024)

Experiments:
[1] = molecular target: T1, WEE1 (Homo sapiens, UniProt P30291+Q96SW2); assay: Western-blot assay, substrate protein degradation in hPBMCs: WEE1; assay type: cell-based; settings: for WEE1 substrate protein remaining %: compounds at 50 nM and 500 nM, 24 hours; for substrate protein remaining % WEE1: 24 hours of compound treatment, 50 nM and 500 nM
T1 construct: effects of the compounds of the present disclosure on the expression of target proteins in cells; endogenous in cells; host or cells: human PBMCs (hPBMCs)
T1 sequence (P30291 whole entry): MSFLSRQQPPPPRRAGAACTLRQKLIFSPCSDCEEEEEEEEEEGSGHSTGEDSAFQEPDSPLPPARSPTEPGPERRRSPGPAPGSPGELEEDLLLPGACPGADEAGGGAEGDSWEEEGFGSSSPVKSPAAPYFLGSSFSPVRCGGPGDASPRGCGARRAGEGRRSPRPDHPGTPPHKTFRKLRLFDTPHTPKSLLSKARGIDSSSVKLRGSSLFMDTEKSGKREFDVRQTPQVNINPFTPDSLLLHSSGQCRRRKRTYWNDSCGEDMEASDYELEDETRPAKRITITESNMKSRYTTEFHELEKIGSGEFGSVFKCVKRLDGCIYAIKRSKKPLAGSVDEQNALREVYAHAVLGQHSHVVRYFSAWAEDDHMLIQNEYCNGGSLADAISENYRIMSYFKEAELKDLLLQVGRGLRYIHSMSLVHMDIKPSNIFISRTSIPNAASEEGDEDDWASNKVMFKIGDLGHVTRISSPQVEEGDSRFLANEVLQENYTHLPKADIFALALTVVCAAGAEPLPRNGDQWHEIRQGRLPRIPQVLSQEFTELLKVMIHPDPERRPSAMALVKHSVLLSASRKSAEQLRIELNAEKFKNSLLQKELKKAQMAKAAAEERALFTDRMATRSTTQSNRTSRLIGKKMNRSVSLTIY
T1 sequence (Q96SW2 whole entry): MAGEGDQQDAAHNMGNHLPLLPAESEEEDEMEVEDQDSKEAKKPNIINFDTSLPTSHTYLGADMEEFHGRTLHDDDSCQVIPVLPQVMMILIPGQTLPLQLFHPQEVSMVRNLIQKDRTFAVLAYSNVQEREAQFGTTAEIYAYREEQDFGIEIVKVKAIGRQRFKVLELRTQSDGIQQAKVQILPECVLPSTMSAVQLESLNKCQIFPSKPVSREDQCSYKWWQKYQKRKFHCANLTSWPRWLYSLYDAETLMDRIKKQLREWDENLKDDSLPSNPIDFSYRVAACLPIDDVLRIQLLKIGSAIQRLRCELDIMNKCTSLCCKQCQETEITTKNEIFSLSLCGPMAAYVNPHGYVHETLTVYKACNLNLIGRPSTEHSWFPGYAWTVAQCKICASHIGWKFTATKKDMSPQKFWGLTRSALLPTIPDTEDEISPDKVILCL
T1 sequence (Q16531 whole entry partner): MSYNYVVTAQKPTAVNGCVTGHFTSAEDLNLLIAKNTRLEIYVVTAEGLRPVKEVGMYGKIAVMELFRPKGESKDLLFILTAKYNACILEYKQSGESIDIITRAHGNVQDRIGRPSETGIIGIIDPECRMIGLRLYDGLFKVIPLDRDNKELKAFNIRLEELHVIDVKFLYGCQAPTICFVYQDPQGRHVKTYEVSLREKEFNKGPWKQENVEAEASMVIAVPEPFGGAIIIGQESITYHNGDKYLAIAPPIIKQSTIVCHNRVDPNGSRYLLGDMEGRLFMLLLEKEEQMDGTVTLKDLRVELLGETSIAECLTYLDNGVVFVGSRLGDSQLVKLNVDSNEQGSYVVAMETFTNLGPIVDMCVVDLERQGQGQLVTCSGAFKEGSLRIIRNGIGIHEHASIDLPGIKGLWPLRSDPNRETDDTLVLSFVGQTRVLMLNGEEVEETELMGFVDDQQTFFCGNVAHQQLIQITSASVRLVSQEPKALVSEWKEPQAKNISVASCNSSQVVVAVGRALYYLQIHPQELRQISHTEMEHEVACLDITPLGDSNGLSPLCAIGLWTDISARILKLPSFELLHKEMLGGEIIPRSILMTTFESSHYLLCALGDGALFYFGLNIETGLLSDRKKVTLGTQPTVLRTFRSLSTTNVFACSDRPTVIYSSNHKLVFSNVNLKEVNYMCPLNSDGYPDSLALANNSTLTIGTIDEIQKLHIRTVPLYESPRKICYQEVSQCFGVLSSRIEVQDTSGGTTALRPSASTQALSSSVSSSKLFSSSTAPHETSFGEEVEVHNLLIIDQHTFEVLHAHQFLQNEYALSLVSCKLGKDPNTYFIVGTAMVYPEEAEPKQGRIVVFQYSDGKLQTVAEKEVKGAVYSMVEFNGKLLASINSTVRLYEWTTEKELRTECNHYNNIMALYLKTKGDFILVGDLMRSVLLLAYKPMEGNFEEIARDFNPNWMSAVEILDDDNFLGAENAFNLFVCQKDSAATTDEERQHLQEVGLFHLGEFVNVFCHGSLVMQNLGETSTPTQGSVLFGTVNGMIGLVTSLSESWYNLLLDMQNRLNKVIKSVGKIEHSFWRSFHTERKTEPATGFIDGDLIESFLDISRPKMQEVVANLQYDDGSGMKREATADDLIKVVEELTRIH

[2] = molecular target: T2, IKZF1 (Homo sapiens, UniProt Q13422+Q96SW2); assay: Western-blot assay, substrate protein degradation in hPBMCs: IKZF1; assay type: cell-based; settings: for IKZF1 substrate protein remaining %: compounds at 50 nM and 500 nM, 24 hours; for substrate protein remaining % IKZF1: 24 hours of compound treatment, 50 nM and 500 nM
T2 construct: effects of the compounds of the present disclosure on the expression of target proteins in cells; endogenous in cells; host or cells: human PBMCs (hPBMCs)
T2 sequence (Q13422 whole entry): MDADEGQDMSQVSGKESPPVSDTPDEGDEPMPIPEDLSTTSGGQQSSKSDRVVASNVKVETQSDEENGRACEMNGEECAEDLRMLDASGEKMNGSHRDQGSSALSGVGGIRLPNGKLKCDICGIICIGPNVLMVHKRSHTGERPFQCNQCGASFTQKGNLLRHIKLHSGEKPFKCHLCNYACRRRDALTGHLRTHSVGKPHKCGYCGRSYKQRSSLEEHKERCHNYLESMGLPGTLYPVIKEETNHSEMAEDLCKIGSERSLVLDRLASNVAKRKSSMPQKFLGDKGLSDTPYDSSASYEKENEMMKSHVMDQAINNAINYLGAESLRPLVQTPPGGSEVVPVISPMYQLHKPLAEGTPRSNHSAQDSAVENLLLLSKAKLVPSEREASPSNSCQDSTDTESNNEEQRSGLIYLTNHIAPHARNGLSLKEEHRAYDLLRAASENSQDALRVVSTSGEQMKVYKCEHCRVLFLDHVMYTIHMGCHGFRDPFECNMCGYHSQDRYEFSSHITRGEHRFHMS
T2 sequence (Q96SW2 whole entry): as the sequence (Q96SW2 whole entry) above
T2 sequence (Q16531 whole entry partner): as the sequence (Q16531 whole entry partner) above

[3] = molecular target: T3, IKZF2 (Homo sapiens, UniProt Q96SW2+Q9UKS7); assay: Western-blot assay, substrate protein degradation in hPBMCs: IKZF2; assay type: cell-based; settings: for IKZF2 substrate protein remaining %: compounds at 50 nM and 500 nM, 24 hours; for substrate protein remaining % IKZF2: 24 hours of compound treatment, 50 nM and 500 nM
T3 construct: effects of the compounds of the present disclosure on the expression of target proteins in cells; endogenous in cells; host or cells: human PBMCs (hPBMCs)
T3 sequence (Q9UKS7 whole entry): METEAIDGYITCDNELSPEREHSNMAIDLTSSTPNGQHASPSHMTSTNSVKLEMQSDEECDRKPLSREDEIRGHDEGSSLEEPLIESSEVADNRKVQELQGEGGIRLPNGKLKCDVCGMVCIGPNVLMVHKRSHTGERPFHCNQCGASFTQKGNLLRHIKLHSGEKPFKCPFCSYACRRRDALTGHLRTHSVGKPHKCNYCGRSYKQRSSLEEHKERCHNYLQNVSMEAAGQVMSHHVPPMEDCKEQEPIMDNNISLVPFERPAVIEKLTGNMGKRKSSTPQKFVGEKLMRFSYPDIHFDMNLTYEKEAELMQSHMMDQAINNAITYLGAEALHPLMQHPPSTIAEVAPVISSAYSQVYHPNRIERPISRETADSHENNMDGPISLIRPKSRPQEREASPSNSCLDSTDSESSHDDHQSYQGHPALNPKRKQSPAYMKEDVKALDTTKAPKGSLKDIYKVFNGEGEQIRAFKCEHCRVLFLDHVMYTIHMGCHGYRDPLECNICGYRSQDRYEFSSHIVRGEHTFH
T3 sequence (Q96SW2 whole entry): as the sequence (Q96SW2 whole entry) above
T3 sequence (Q16531 whole entry partner): as the sequence (Q16531 whole entry partner) above

[4] = molecular target: T4, IKZF3 (Homo sapiens, UniProt Q96SW2+Q9UKT9); assay: Western-blot assay, substrate protein degradation in hPBMCs: IKZF3; assay type: cell-based; settings: for IKZF3 substrate protein remaining %: compounds at 50 nM and 500 nM, 24 hours; for substrate protein remaining % IKZF3: 24 hours of compound treatment, 50 nM and 500 nM
T4 construct: effects of the compounds of the present disclosure on the expression of target proteins in cells; endogenous in cells; host or cells: human PBMCs (hPBMCs)
T4 sequence (Q9UKT9 whole entry): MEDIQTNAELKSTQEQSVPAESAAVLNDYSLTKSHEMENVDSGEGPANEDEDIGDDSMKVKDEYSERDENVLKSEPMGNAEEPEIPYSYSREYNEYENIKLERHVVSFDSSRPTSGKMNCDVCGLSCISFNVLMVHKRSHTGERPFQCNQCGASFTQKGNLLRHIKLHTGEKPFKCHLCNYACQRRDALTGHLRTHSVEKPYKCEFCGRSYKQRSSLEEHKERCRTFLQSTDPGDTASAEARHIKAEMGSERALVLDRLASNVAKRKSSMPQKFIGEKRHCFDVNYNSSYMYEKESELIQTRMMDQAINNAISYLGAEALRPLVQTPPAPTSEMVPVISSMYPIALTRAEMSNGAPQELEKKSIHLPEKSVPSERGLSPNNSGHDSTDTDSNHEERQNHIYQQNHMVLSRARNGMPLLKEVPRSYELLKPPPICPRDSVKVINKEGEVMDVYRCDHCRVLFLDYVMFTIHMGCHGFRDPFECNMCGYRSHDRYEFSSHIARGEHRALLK
T4 sequence (Q96SW2 whole entry): as the sequence (Q96SW2 whole entry) above
T4 sequence (Q16531 whole entry partner): as the sequence (Q16531 whole entry partner) above

[5] = molecular target: T5, CK1α (Homo sapiens, UniProt P48729+Q96SW2); assay: Western-blot assay, substrate protein degradation in hPBMCs: CK1α; assay type: cell-based; settings: for CK1α substrate protein remaining %: compounds at 50 nM and 500 nM, 24 hours; for substrate protein remaining % CK1α: 24 hours of compound treatment, 50 nM and 500 nM
T5 construct: effects of the compounds of the present disclosure on the expression of target proteins in cells; endogenous in cells; host or cells: human PBMCs (hPBMCs)

[6] = molecular target: T6, GSPT1 (Homo sapiens, UniProt P15170+Q96SW2); assay: Western-blot assay, substrate protein degradation in hPBMCs: GSPT1; assay type: cell-based; settings: for GSPT1 substrate protein remaining %: compounds at 50 nM and 500 nM, 24 hours; for substrate protein remaining % GSPT1: 24 hours of compound treatment, 50 nM and 500 nM
T6 construct: effects of the compounds of the present disclosure on the expression of target proteins in cells; endogenous in cells; host or cells: human PBMCs (hPBMCs)
T6 sequence (P15170 whole entry): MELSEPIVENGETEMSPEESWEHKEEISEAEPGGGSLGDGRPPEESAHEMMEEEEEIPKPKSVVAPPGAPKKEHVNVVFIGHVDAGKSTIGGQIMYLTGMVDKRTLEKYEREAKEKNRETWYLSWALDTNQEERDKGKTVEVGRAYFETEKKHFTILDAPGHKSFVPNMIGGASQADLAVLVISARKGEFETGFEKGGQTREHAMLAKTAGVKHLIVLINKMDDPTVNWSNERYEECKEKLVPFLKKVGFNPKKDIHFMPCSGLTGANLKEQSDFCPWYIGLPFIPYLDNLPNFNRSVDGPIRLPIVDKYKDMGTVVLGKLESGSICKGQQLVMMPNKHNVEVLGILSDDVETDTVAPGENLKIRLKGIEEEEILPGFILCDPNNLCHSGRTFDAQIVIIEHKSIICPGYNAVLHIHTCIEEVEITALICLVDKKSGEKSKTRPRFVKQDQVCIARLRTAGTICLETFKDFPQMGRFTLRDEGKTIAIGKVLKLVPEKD
T6 sequence (Q96SW2 whole entry): as the sequence (Q96SW2 whole entry) above
T6 sequence (Q16531 whole entry partner): as the sequence (Q16531 whole entry partner) above

[7] = test system: MM.1S; assay: Cell viability assay (CellTiter-Meiluncell Luminescent), tumor cell proliferation, MM.1S; settings: Homo sapiens, MM1.S, 96 h, read-out: inhibitory activity (IC50, nM) against tumor cells proliferation, MM.1S
Procedure: (§1) The tumor cells used herein were cultured in a cell culture medium listed in table 2 at 37°C in an incubator with 5% CO2. Prior to experimentation, all cell lines used were correctly identified by STR profiling, and tested negative for mycoplasma contamination using a mycoplasma detection kit through routine screenings.
(§2) On the following day, the test compounds of the present disclosure were subjected to serial dilution. […] Subsequently, 0.5 µL of the test compound dilution was transferred into the 96-well plate containing the cells, with each well containing 100 µL of cell culture medium. […] Into the 96-well plate, the diluted test compounds and corresponding detection reagents were added, resulting in final test compound concentrations of 500 nM and 10 nM, respectively. The experimental procedure is described below using the diluted 2 µM test compound as an example.
(§3) After the cells were treated with the compounds of the present disclosure for a specified period, the cell viability assay reagent was added to the culture medium according to the kit's instructions to determine cell viability. […] All controls were treated using the same procedure as the compounds of the present disclosure. The growth inhibition curves for the compounds of the present disclosure were plotted using Prism GraphPad software, and the IC50 values were calculated therefrom.

[8] = test system: Jurkat; assay: Cell viability assay (CellTiter-Meiluncell Luminescent), tumor cell proliferation, Jurkat; settings: Homo sapiens, 96 h, read-out: inhibitory activity (IC50, nM) against tumor cells proliferation, Jurkat
[9] = test system: MV-4-11; assay: Cell viability assay (CellTiter-Meiluncell Luminescent), tumor cell proliferation, MV-4-11; settings: Homo sapiens, MV4-11, 96 h, read-out: inhibitory activity (IC50, nM) against tumor cells proliferation, MV-4-11
Procedure: as §1, §2, §3

Row | SMILES | WEE1 substrate protein remaining % [1] | IKZF1 substrate protein remaining % [2] | IKZF2 substrate protein remaining % [3] | IKZF3 substrate protein remaining % [4] | CK1α substrate protein remaining % [5] | GSPT1 substrate protein remaining % [6] | IC50 [7] [nM] | IC50 [8] [nM] | IC50 [9] [nM] | substrate protein remaining % WEE1 [1] | substrate protein remaining % IKZF1 [2] | substrate protein remaining % IKZF2 [3] | substrate protein remaining % IKZF3 [4] | substrate protein remaining % CK1α [5] | substrate protein remaining % GSPT1 [6]
1 | O=C1CCN(N2Cc3cc(CN4CC=C(c5ccco5)CC4)ccc3C2=O)C(=O)N1 [GT-04874, 1-(5-((4-(furan-2-yl)-3,6-dihydropyridin-1(2H)-yl)methyl)-1-oxoisoindolin-2-yl)dihydropyrimidine-2,4(1H,3H)-dione] | A ("A" is defined as 0% ≤ substrate protein remaining % ≤ 80%) | A ("A" is defined as 0% ≤ substrate protein remaining % ≤ 80%) | B ("B" is defined as 80%< substrate protein remaining %≤ 100%) | A ("A" is defined as 0% ≤ substrate protein remaining % ≤ 80%) | B ("B" is defined as 80%< substrate protein remaining %≤ 100%) | A ("A" is defined as 0% ≤ substrate protein remaining % ≤ 80%) | 100 to 300 | 500 to 1000 | – | – | – | – | – | – | –
2 | O=C1CCN(N2Cc3cc(CN4CCN(c5cc(Cl)cc(Cl)c5)CC4)ccc3C2=O)C(=O)N1 [GT-06776, 1-(5-((4-(3,5-dichlorophenyl)piperazin-1-yl)methyl)-1-oxoisoindolin-2-yl)dihydropyrimidine-2,4(1H,3H)-dione] | A ("A" is defined as 0% ≤ substrate protein remaining % ≤ 80%) | B ("B" is defined as 80%< substrate protein remaining %≤ 100%) | A ("A" is defined as 0% ≤ substrate protein remaining % ≤ 80%) | B ("B" is defined as 80%< substrate protein remaining %≤ 100%) | A ("A" is defined as 0% ≤ substrate protein remaining % ≤ 80%) | A ("A" is defined as 0% ≤ substrate protein remaining % ≤ 80%) | – | 500 to 1000 | 100 to 300 | – | – | – | – | – | –
3 | O=C1CCN(N2Cc3cc(CN4CCC(c5cccc(Cl)c5Cl)CC4)ccc3C2=O)C(=O)N1 [GT-06893, 1-(5-((4-(2,3-dichlorophenyl)piperidin-1-yl)methyl)-1-oxoisoindolin-2-yl)dihydropyrimidine-2,4(1H,3H)-dione] | B ("B" is defined as 80%< substrate protein remaining %≤ 100%) | A ("A" is defined as 0% ≤ substrate protein remaining % ≤ 80%) | A ("A" is defined as 0% ≤ substrate protein remaining % ≤ 80%) | B ("B" is defined as 80%< substrate protein remaining %≤ 100%) | B ("B" is defined as 80%< substrate protein remaining %≤ 100%) | A ("A" is defined as 0% ≤ substrate protein remaining % ≤ 80%) | – | 500 to 1000 | 100 to 300 | – | – | – | – | – | –
4 | O=C1CCN(N2Cc3cc(CN4CCC(c5cccc(F)c5Cl)CC4)ccc3C2=O)C(=O)N1 [GT-06894, 1-(5-((4-(2-chloro-3-fluorophenyl)piperidin-1-yl)methyl)-1-oxoisoindolin-2-yl)dihydropyrimidine-2,4(1H,3H)-dione] | B ("B" is defined as 80%< substrate protein remaining %≤ 100%) | A ("A" is defined as 0% ≤ substrate protein remaining % ≤ 80%) | B ("B" is defined as 80%< substrate protein remaining %≤ 100%) | B ("B" is defined as 80%< substrate protein remaining %≤ 100%) | B ("B" is defined as 80%< substrate protein remaining %≤ 100%) | A ("A" is defined as 0% ≤ substrate protein remaining % ≤ 80%) | – | 500 to 1000 | 300 to 500 | – | – | – | – | – | –
5 | O=C1CCN(N2Cc3cc(CN4CCN(C(c5cccc(F)c5)c5cccc(F)c5)CC4)ccc3C2=O)C(=O)N1 [GT-07293, 1-(5-((4-(bis(3-fluorophenyl)methyl)piperazin-1-yl)methyl)-1-oxoisoindolin-2-yl)dihydropyrimidine-2,4(1H,3H)-dione] | A ("A" is defined as 0% ≤ substrate protein remaining % ≤ 80%) | B ("B" is defined as 80%< substrate protein remaining %≤ 100%) | A ("A" is defined as 0% ≤ substrate protein remaining % ≤ 80%) | A ("A" is defined as 0% ≤ substrate protein remaining % ≤ 80%) | B ("B" is defined as 80%< substrate protein remaining %≤ 100%) | A ("A" is defined as 0% ≤ substrate protein remaining % ≤ 80%) | 100 to 300 | 100 to 300 | – | – | – | – | – | – | –
6 | O=C1CCN(N2Cc3cc(CN4CC=C(c5ccnc(Cl)c5Cl)CC4)ccc3C2=O)C(=O)N1 [GT-07432, 1-(5-((2',3'-dichloro-3,6-dihydro-[4,4'-bipyridin]-1(2H)-yl)methyl)-1-oxoisoindolin-2-yl)dihydropyrimidine-2,4(1H,3H)-dione] | – | – | – | – | – | – | 300 to 500 | 500 to 1000 | – | A (0% ≤ substrate protein remaining % ≤ 80%) | A (0% ≤ substrate protein remaining % ≤ 80%) | A (0% ≤ substrate protein remaining % ≤ 80%) | A (0% ≤ substrate protein remaining % ≤ 80%) | A (0% ≤ substrate protein remaining % ≤ 80%) | A (0% ≤ substrate protein remaining % ≤ 80%)
7 | O=C1CCN(N2Cc3cc(CN4CCC(c5cccs5)CC4)ccc3C2=O)C(=O)N1 [GT-07511, 1-(1-oxo-5-((4-(thiophen-2-yl)piperidin-1-yl)methyl)isoindolin-2-yl)dihydropyrimidine-2,4(1H,3H)-dione] | – | – | – | – | – | – | 500 to 1000 | 500 to 1000 | – | A (0% ≤ substrate protein remaining % ≤ 80%) | A (0% ≤ substrate protein remaining % ≤ 80%) | A (0% ≤ substrate protein remaining % ≤ 80%) | B (80%< substrate protein remaining %≤ 100%) | A (0% ≤ substrate protein remaining % ≤ 80%) | A (0% ≤ substrate protein remaining % ≤ 80%)
8 | Cn1cc(C2CCN(Cc3ccc4c(c3)CN(N3CCC(=O)NC3=O)C4=O)CC2)c2ccc(F)cc21 [GT-07575, 1-(5-((4-(6-fluoro-1-methyl-1H-indol-3-yl)piperidin-1-yl)methyl)-1-oxoisoindolin-2-yl)dihydropyrimidine-2,4(1H,3H)-dione] | – | – | – | – | – | – | 100 to 300 | 100 to 300 | – | A (0% ≤ substrate protein remaining % ≤ 80%) | A (0% ≤ substrate protein remaining % ≤ 80%) | A (0% ≤ substrate protein remaining % ≤ 80%) | A (0% ≤ substrate protein remaining % ≤ 80%) | A (0% ≤ substrate protein remaining % ≤ 80%) | A (0% ≤ substrate protein remaining % ≤ 80%)
9 | O=C1CCN(N2Cc3cc(CN4CC=C(c5c[nH]c6ncccc56)CC4)ccc3C2=O)C(=O)N1 [GT-07577, 1-(5-((4-(1H-pyrrolo[2,3-b]pyridin-3-yl)-3,6-dihydropyridin-1(2H)-yl)methyl)-1-oxoisoindolin-2-yl)dihydropyrimidine-2,4(1H,3H)-dione] | – | – | – | – | – | – | 300 to 500 | 500 to 1000 | – | A (0% ≤ substrate protein remaining % ≤ 80%) | A (0% ≤ substrate protein remaining % ≤ 80%) | B (80%< substrate protein remaining %≤ 100%) | A (0% ≤ substrate protein remaining % ≤ 80%) | A (0% ≤ substrate protein remaining % ≤ 80%) | A (0% ≤ substrate protein remaining % ≤ 80%)
